Assay results from PubChem BioAssay AID743369.
Activity calls are given as the source filed them. How the calls were made is not given here.

Target: Acetylcholine-binding protein (Lymnaea stagnalis) (UniProt P58154)
Test: acetylcholine-binding protein ligand affinity – biochemical, Lymnaea stagnalis, His-tagged, [125I]alpha-bungarotoxin (AID 743369)
Conditions: Purified AChBP, [125I]-alpha-bungarotoxin displacement, filtration

Sequence of Acetylcholine-binding protein (Lymnaea stagnalis) (P58154 whole entry, looked up): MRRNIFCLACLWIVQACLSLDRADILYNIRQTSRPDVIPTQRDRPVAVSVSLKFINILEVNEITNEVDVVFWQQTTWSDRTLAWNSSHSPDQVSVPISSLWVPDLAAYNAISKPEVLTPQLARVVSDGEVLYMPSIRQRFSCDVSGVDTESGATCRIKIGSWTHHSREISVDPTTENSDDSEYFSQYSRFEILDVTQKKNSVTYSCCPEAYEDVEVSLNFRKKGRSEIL

SMILES | Ki
CC/C=C/[C@@H]1CC[C@]2(C[C@H]3CC[C@H]4[C@@H](C(=O)OC(CC)CCCCCCCCCCCCC[C@@H]5O[C@](O)(CCN)[C@H](O)N(CCCN)C5=O)[C@@]5(CCC[C@H](C)O5)NC(=[N+]34)N2)O1 (stereo partly specified) | 2500 nM
C[C@@H](N)[C@H](O)CCCCCCCC(=O)CCCCCCCCCCCCCC[C@@H](O[C@@H]1O[C@H](CO)[C@H](O)[C@H](O)[C@H]1O)[C@@H](C)N | 28000 nM
NC1=N/C(=C2/CCNC(=O)c3[nH]ccc32)C(=O)N1 | inactive
COc1cc2c3c(ccnc3c1OC)NC=C2 | 3000 nM
COn1c(Br)c2c3c(cccc31)[C@H]1C[C@@H](C)CN(C)[C@@H]1C2 | 830 nM
COc1cc(CCN)c2c(c1OC)SSSSS2 | 790 nM
